Laboratory results reported in US6548042B2, “Bis-phosphonate compounds” (priority 2000, dated 2003).
“And” between values parts separate entries of the source, which are not always exact repeats. Equal entries are not always repeated.

What was measured:
[1] = Pharmacokinetics in mice by scintigraphy (gamma camera); type: in vivo, balb/c mice
Method: Pharmacokinetics in mice. Two animals weighing 20 g and 28 g were anaesthetized and given 250 μl single bolus tail vein injections containing 12 MBq of 46a. The animals were placed under a gamma camera and 2 min frames were collected for the following 2 h. The presented data refers to the animal weighing 20 g.
A gamma camera (ADAC, USA) equipped with a 6 mm pinhole collimator was used. Dynamic data were acquired using a 128×128 matrix size, the field of view was zoomed to the middle 25×25 cm of the camera, and 2 min frames were collected for 2 hours.
The progression from intravenous injection of the hydroxybisphosphonate 46a in mice (balb/c, 20 g) was monitored by means of scintigraphy for 2 h. Images were obtained and dynamic curves for the radioactivity detected in the kidneys and bladder were derived by interactively drawing regions around structures of interest (FIG. 9). […] This is due to the increased sensitivity in the middle of the image, where the accumulation occurs in the kidneys and bladder.

[2] = system: MT-1 cells; assay: Antitumour efficacy, MT-1 skeletal metastases model in nude rats; type: in vivo; settings: for Mean survival time: 7 days after cell injection
Method: (§1) Initially, a skeletal metastases model in nude rats, including the human breast carcinoma line MT-1 (1) was tested. A total of 1×10^6 cells were injected into the left vintricula of the heart (L.V.) of 4-5 weeks old nude rats (2). A primary osteogenic sarcoma model in nude rats, was established by intratibial (i.t.) injection of 1×10^6 OHS cells (3-5). A total of 20 animals, allocated in four groups (n=5 for each group) were used for both cell lines. The animals inoculated with MT-1 cells were treated with 200, 300 or 400 MBq/kg of 46a seven days after cell injection. The animals inoculated with OHS cells were treated with 100, 200 or 400 MBq/kg of 46a seven days after cell inoculation. The control groups (MT-1 and OHS) received saline only. Doses were corrected for the actual weight of each animal and administered by single bolus tail vein injections.
The MT-1 model simulates formation of mixed lytic/sclerotic skeletal metastasis in breast cancer patients. The model had recently been established in immuno-deficient rats by injections into the left ventricula (L.V.) of the oestrogen receptor-negative human breast cancer (MT-1) cell line.^83,84,85 In this model, large masses of tumour cells build up in the spine, replacing the normal bone marrow and eroding the bone part of the spine.
Treatment with the hydroxybisphosphonate 46a was initiated 7 days after tumour cell inoculation, while the control group received saline only. […] In comparison, the mean survival times for the animals treated with 46a were 27.5 days (range 23-29, one survivor), 29.0 days (range 27-33) and 30.6 days (range 29-33) with increasing dose of 200, 300 and 400 MBq/kg, respectively (n=5 in each group).

[3] = Biodistribution of i.v. administered radioiodinated compounds in balb/c mice;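 also: healthy mice given radioiodinated bisphosphonic acids, with randomly chosen groups of three animals per time point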
Method: (§2) Mice. Samples of 100 μl containing 50,100, 400, 140 or 45 KBq of 31a, 34a, 46a, 67a or 72a, respectively, were injected into the tail veins as single bolus injections. […] At 0.5 h, 2 h, 5 h and 24 h postinjection times the animals were sacrificed; except in the case of the phosphate phosphonate derivative 31 were the animals were sacrificed 0.25 h, 2 h, 5 h and 24 h postinjection. Randomly selected groups of three animals were used at each time point. The whole animals were weighed and dissected. The excised organs, i.e. femur, skull, blood, heart, lung, liver, kidney, spleen, stomach, large intestine and small intestine, were weighed separately prior to counting.
(§3) Radioactivity measurements of the labelled compounds were carried out with a liquid scintillation counter (Beckman LS 6500, Beckman Instruments, USA) or with a Capintec CRC-7R radioisotope calibrator (Capintec, USA). The radioactivity level of the excised organs was measured with an automated gamma counter (LKB Wallac 1282, Turku, Finland).

[4] = Biodistribution of HPLC-purified and nonpurified (crude) compound in nude rats; type: in vivo, congenitally athymic nude rats (Han rnu/rnu Rowett)
Method: Nude/nude rats with a body weight averaging 60 g were used in the biodistribution experiments. The aim of the study was to compare crude 3h with HPLC-purified 3h. The term “crude compound” refers to the diluted and neutralised labelling reaction mixture described hereinbefore. The compounds were administrated by tail vein injections of 200 μl for each animal, using three animals for each sample. 24 h after injection the animals were killed by a lethal injection and the tissue distribution determined.
Rats. […] At 24 h postinjection the animals were sacrificed, weighed and dissected.
To further evaluate the hydroxybisphosphonate 46a, biodistribution of this compound was obtained in rats. The goal of this experiment was to find whether there was a difference in the properties of the HPLC-purified compound as compared with a nonpurified sample.

[5] = mouse, in vivo
Method: as §2, §3

[6] = system: OHS cells; assay: Antitumour efficacy, OHS osteogenic sarcoma model in nude rats; type: in vivo; settings: for Mean disease-free latency: 7 days after cell inoculation
Method: as §1
The OHS model had been established by intratibial injections of the osteogenic sarcoma (OHS) cell line in immuno-deficient rats.^86,87 Eventually, the rats develop palpable tibial tumours. At the time of treatment (7 days after cell inoculation) the tumours fill approximately 50-60% of the tibial cavity and have a substantial osteoid production closely resembling that of osteoblastic osteosarcomas in the clinic.^88 The model has been used to evaluate the antitumour efficacy of several drugs currently used in the treatment of bone-related cancer.
Disease-free latency was defined as the period between tumour cell inoculation and the time the diameter of the tumour-injected tibia had increased by 2-3 mm compared with that of the non-injected contralateral leg.

[7] = 24 h postinjection, i.v., listed as 3h
[8] = all animals treated (100, 200, 400 MBq/kg)

SMILES: O=P(O)(O)C(O)(Cc1cccc([131I])c1)P(=O)(O)O [46a, 1-hydroxy(m-[^131I and ^125I]-iodophenyl)-ethylidene-1,1-bisphosphonic acid]
- Injected activity accumulated in the bladder ([1]; after 2 hours, mouse 20 g, 12 MBq i.v.): 27%
- Peak uptake in the kidneys (left and right) ([1]; at 45 min postinjection): 7.5 % of the injected dose
- Biological half-life in the kidneys ([1]; from the peak at 45 min): 50 min
- Estimated excretion of the injected dose ([1]; mouse, in vivo): 35%
- Estimated retention of the injected dose ([1]; mouse, in vivo): 65%
- Time of peak uptake in the kidneys ([1]; postinjection): 45 min
- Survival time, range ([2]; 200 MBq/kg): 23 to 29 days
- Mean survival time ([2]; 200 MBq/kg, n=5): 27.5 days
- Long time survivors ([2]; 200 MBq/kg, n=5): one survivor
- Survival time, range ([2]; 300 MBq/kg): 27 to 33 days
- Mean survival time ([2]; 300 MBq/kg, n=5): 29.0 days
- Survival time, range ([2]; 400 MBq/kg): 29 to 33 days
- Mean survival time ([2]; 400 MBq/kg, n=5): 30.6 days
- p of increased survival time (lifetime) compared with controls ([2]; all dose levels (200, 300, 400 MBq/kg), Wilcoxon rank-sum test, long time survivors excluded): < 0.05
- Lifetime after treatment ([2]; breast cancer model): increased lifetime
- Uptake in femur ([3]; 0.5 h (30 min) postinjection, i.v.): 45.03±6.75 % ID/g
- Uptake in femur ([3]; 0.5 h (30 min) postinjection, i.v., listed as 3h): 45±7 % ID/g
- Activity in blood ([3]; 0.5 h postinjection, i.v.): 15.92±12.75 % ID/g
- Uptake in kidneys ([3]; 0.5 h postinjection, i.v.): 18.64±1.78 % ID/g
- Uptake in skull ([3]; 0.5 h postinjection, i.v.): 24.61±3.85 % ID/g
- Uptake in femur ([3]; 2 h postinjection (peak), i.v.): 45.54±4.10 % ID/g
- Uptake in femur ([3]; 2 h postinjection (peak), i.v., listed as 3h): 46±4 % ID/g
- Activity in blood ([3]; 2 h postinjection, i.v.): 1.36±0.25 % ID/g
- Femur to soft tissue ratio ([3]; 24 h, soft tissue with highest uptake): ≥ 7
- Uptake in femur ([3]; 24 h postinjection, i.v.): 37.79±11.78 % ID/g
- Uptake in kidneys ([3]; 24 h postinjection, i.v.): 5.16±2.00 % ID/g
- Uptake in liver ([3]; 24 h postinjection, i.v.): 2.27±0.69 % ID/g
- Uptake in femur [3, 7]: 38±12 % ID/g
- Uptake in kidneys [3, 7]: 5±2 % ID/g
- Uptake in liver [3, 7]: 2±0.7 % ID/g
- Uptake in femur expressed as % gram dose per gram tissue ([3]; balb/c mice, 20-25 g, 2 h, maximum uptake, listed as 1): 1025 (balb/c mice, 20-25 g, 2 h), % gram dose per gram tissue
- Uptake in stomach ([3]; balb/c mice, 20-25 g, 24 h): 0.13 ± 0.01 % ID/g
- Uptake in the thyroid ([3]; balb/c mice, 20-25 g, 24 h): 0.06 ± 0.04 % injected dose/organ
- Ratio between uptake in femur and kidney ([3]; balb/c mice, 20-25 g, 24 h, listed as 1): 7.3 (femur/kidney, balb/c mice, 20-25 g,
- Ratio between uptake in femur and kidney ([3]; balb/c mice, 20-25 g, 24 h, listed as 3h): 7
- In vivo stability relative to compound 2 and 3 ([3]; from thyroid and stomach uptake, Table 3): about 7 times
- Discomfort or toxicity after administration of samples ([3]; single bolus tail vein injection, 100 μl): No sign of discomfort or toxicity was observed
- Bone affinity of purified compound versus crude product ([4]; 24 h): 3 fold
- Femur uptake ([4]; HPLC purified, nude/nude rats 60 g, 24 h): 1020 % g dose/g
- Femur to soft tissue ratio ([4]; HPLC-purified sample, 24 h): > 45
- Uptake in femur ([4]; HPLC-purified sample, 24 h): 16.44±1.96 % ID/g
- Uptake in kidneys ([4]; HPLC-purified sample, 24 h): 0.36±0.03 % ID/g
- Uptake in skull ([4]; HPLC-purified sample, 24 h): 5.84±0.35 % ID/g
- Uptake in femur expressed as % gram dose per gram tissue ([4]; Rowett rats, 60 g, 24 h): 986 (Rowett rats, 60 g, 24 h) % gram dose per gram tissue
- Uptake in stomach ([4]; Rowett rats, 60 g, 24 h): 0.05 ± 0.01 % ID/g
- Uptake in the thyroid ([4]; Rowett rats, 60 g, 24 h): 0.02 ± 0.01 % injected dose/organ
- Ratio between uptake in femur and kidney ([4]; Rowett rats, 60 g, 24 h, HPLC purified, listed as 1): 24 h) and 45.7 (femur/kidney,
- Ratio between uptake in femur and kidney ([4]; Rowett rats, 60 g, 24 h, HPLC purified, listed as 3h): above 45
- Femur to kidney ratio ([4]; nonpurified sample): 14
- Femur to skull ratio ([4]; nonpurified sample): ~7
- Uptake in the thyroid ([4]; nonpurified sample): 0.03±0.01 % of the total injected radioactivity
- Uptake in femur ([4]; nonpurified sample, 24 h): 5.28±1.10 % ID/g
- Bone-seeking properties [5]: potent bone-seekers
- Disease-free latency, range ([6]; 100 MBq/kg): 18 to 32 days
- Mean disease-free latency ([6]; 100 MBq/kg, n=5): 27 days
- Survivors ([6]; 100 MBq/kg, n=5): one survivor
- Disease-free latency, range ([6]; 200 MBq/kg): 26 to 36 days
- Mean disease-free latency ([6]; 200 MBq/kg, n=5): 30 days
- Survivors ([6]; 200 MBq/kg, n=5): one survivor
- Disease-free latency, range ([6]; 400 MBq/kg): 26 to 36 days
- Mean disease-free latency ([6]; 400 MBq/kg, n=5): 31 days
- Long time survivors (>100 days) [6, 8]: 33%
- Long time survivors (>100 days), animals [6, 8]: 5 of 15
- Long time survivors ([6]; highest dose, 400 MBq/kg, n=5): 60%
- Long time survivors (animals) ([6]; highest dose, 400 MBq/kg, n=5): 3 and 3 of 5
- Long time survivors (animals) ([6]; highest dose, 400 MBq/kg, n=5, listed as 1): 3 of 5
- P of increase in disease-free latency time compared to the other groups ([6]; highest dose, Kruskal-Wallis test): < 05
- Lifetime after treatment ([6]; osteosarcoma model): dramatic increase in lifetime
